The text below walks through data of US8637013B2, “Treatment of drug-related side effect and tissue damage by targeting the CD24-HMGB1-Siglec10 axis” (The Regents of The University of Michigan, priority 2009, dated 2014).

Assay [1] deals with T1, HMGB1 (Homo sapiens, UniProt P09429).
T1 construct: the full-length HMGB-1 expression vector was transfected into TSA cells; FLAG; made in house; host or cells: TSA cells (purified protein)
T1 sequence (P09429 1-215): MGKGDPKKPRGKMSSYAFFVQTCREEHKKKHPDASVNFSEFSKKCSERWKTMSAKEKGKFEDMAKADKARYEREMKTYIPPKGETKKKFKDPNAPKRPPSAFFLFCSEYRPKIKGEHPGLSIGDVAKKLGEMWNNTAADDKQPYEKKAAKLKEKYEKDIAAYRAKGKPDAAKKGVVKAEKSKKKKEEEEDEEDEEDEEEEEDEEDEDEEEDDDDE
Briefly: Co-immunoprecipitation of HMGB1 with CD24-Fc. It counts as binding. To be noted: vs control IgG-Fc; cation-dependent.

The subject of assay [2] is HMGB1. Put plainly: Co-immunoprecipitation of HMGB1 with CD24-Fc. It counts as binding, human. Conditions: FLAG-tagged constructs in COS7 cell lysates.
Assay [3] has as its system AAP-induced liver damage in WT B6 mice. Put plainly: AAP-induced liver damage in WT mice treated with CD24Fc. To be noted: AAP 16 mg/mouse, 5 hours after AAP, vs control IgG Fc. It counts as in vivo.
Assay [4] concerns sialidase activity in the sera of sepsis mice. Put plainly: Serum sialidase activity of CLP mice (Amplex Red Neuraminidase assay kit). It counts as biochemical, mouse. Conditions: sera from CLP mice mixed with inhibitors prior to the assay.
Assay [5] addresses T2, CD24-Siglec 10 interaction (Homo sapiens, UniProt Q96LC7).
T2 construct: Recombinant protein consisting of human IgG Fc and extracellular domains of Siglec 10; purchased R&D Systems
T2 sequence (Q96LC7 17-550 limits assumed): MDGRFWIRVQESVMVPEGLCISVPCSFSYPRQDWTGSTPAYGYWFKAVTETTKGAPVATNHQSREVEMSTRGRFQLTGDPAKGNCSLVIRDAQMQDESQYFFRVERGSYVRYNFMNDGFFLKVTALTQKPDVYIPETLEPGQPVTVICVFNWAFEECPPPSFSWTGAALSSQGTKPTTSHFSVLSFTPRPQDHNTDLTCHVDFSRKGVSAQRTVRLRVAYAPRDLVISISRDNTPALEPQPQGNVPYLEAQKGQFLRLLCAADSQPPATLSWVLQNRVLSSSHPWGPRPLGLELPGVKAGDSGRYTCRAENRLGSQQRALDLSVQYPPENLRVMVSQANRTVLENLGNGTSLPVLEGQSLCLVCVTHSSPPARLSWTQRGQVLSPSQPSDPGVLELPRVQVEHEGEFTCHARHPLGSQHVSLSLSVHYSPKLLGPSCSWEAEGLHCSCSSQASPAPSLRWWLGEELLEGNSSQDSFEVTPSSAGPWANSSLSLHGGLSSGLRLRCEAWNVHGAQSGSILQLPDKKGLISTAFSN
Briefly: Inhibition of CD24-Siglec 10 interaction by sialosides (microplate binding assay). To be noted: for Inhibition of CD24-Siglec 10 interaction: Siglec 10Fc preincubated with sialoside, then added to plate-bound CD24Fc.

No end group written: not given here.

“CD24Fc: fusion protein that binds to HMGB1 and Siglec 10 (SETTTGTSSNSSQSTSNSGLAPNPTNATTK; not fully specified (C-terminus); also: fused to dimerising Fc (not given here))”: the “Coimmunoprecipitation of recombinant HMGB-1” value with HMGB1 [1] was “specifically coimmunoprecipitated”. In addition, in the assay with HMGB1 [2], the “Immunoprecipitation of box A-containing HMGB1 mutant” value was “not the box A-containing mutant”; the “Immunoprecipitation of full length HMGB1 and box B-containing mutant” value is “immunoprecipitated”. Besides, the “Inflammatory cytokines in serum (IL-6, IL-10, MCP-1, IFN-γ, TNF-α)” value in assay [3] is listed as “massive reduction”. As for `O=C(CO)N[C@H]1[C@H]([C@H](O)[C@H](O)CO)OC(C(=O)O)=C[C@@H]1O` [Neu5Gc2en, 2,3-dehydro-2-deoxy-N-glycolylneuraminic acid], in assay [4], the “Inhibition of sialidase activity in the serum of sepsis mice” value is “partial inhibition”. Consider `CC(=O)N[C@H]1[C@H]([C@H](O)[C@H](O)CO)O[C@@](OC[C@H]2O[C@@H](O[C@H]3[C@H](O)[C@@H](O)C(O)O[C@@H]3CO)[C@H](O)[C@@H](O)[C@H]2O)(C(=O)O)C[C@@H]1O` (stereo partly drawn) [Neu5Acα2-6Lac], for which the “Relative potency in inhibiting CD24-Siglec 10 interaction” value in assay [5] (2-6 versus 2-3 linked sialoside) is given as “more potent”. In addition, the “Inhibition of CD24-Siglec 10 interaction” value in assay [5] was “efficient inhibition”. As for `CC(=O)N[C@@H]1C(O)C=C(C(=O)O)OC1[C@H](O)[C@H](O)CO` (stereo partly drawn) [Compound 1, 2,3-dehydro-2-deoxy-N-acetylneuraminic acid], the “Inhibition of sialidase activity in the serum of sepsis mice” value in assay [4] was “minimal effect”. Take `CC(=O)N[C@H]1[C@H]([C@H](O)[C@H](O)CO)O[C@@](O[C@H]2[C@@H](O)[C@@H](CO)O[C@@H](O[C@H]3[C@H](O)[C@@H](O)C(O)O[C@@H]3CO)[C@@H]2O)(C(=O)O)C[C@@H]1O` (stereo partly drawn) [Neu5Acα2-3Lac]: the “Inhibition of CD24-Siglec 10 interaction” value in assay [5] is reported as “efficient inhibition”.
